Source: patent publication US5387602A, “1.5-diphenyl-3-(N-hydroxycarbamoyloxyalkyl)pyrazoles” (Ortho Pharmaceutical Corporation, priority 1993, dated 1995)
Where two headings read alike, the source gives them in different places.

Columns and labels:
[1] = target: T1, RBL-1 Cell 5-Lipoxygenase (Rattus norvegicus, UniProt P12527); assay: Procedure II: 5-lipoxygenase inhibition in disrupted RBL-1 cells (supernatant as enzyme source); type: biochemical; details: for IC50: read-out: IC50 5-LO (Procedure II)
T1 construct: the supernatant was saved as the source of enzymes; endogenous in cells; host or cells: RBL-1 (rat basophilic leukemia cells), 10,000×g supernatant of homogenate
T1 sequence (P12527 1-673): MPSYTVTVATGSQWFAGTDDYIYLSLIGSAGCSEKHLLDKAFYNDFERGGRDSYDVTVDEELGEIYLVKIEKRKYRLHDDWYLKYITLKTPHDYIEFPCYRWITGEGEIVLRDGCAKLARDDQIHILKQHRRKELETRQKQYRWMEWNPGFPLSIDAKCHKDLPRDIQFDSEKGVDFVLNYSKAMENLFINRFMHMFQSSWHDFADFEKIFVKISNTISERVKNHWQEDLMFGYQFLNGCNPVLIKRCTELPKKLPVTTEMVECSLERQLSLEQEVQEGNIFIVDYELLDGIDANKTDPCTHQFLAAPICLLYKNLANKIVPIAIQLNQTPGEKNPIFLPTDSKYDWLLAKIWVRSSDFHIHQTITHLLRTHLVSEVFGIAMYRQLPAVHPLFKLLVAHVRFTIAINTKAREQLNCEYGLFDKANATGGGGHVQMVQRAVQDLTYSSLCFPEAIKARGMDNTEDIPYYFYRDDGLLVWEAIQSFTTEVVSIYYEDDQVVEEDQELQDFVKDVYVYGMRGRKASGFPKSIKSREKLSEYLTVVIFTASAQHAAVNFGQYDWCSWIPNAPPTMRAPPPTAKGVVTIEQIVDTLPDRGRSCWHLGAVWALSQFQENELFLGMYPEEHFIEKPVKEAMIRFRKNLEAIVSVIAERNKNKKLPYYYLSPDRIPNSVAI
Description: RBL-1 Cell 5-Lipoxygenase and Cyclooxygenase
Rat basophilic leukemia cells (RBL-1; 5×10^7 viable cells/mL) were disrupted by homogenization on ice (four 20 sec bursts) with a Brinkman polytron. Complete cell breakage was verified microscopically. The homogenate was then centrifuged at 10,000×g for 48 minutes at 4° C. The pellet was discarded and the supernatant was saved as the source of enzymes. The supernatant was pre-incubated for five minutes at 37° C. in the presence of 2 mM of CaCl2 and compound or vehicle (1% DMSO). The conversion of AA into 5-LO products was initiated by adding 10 μL (50 μCi) of 1-^14 C-AA to each tube and incubated at 37° C. for 20 minutes. The reaction was stopped by adjusting the pH of each sample to 3 to 3.5 with 2M formic acid. Samples were extracted with three volumes of chloroform to isolate the products of 5-LO formed during the reaction. Fractions were dried under nitrogen, then resuspended in 40 μL of chloroform and spotted onto silica gel HL plates. The plates were developed in A-9 solvent. The dried plates were analyzed using a Bioscan Imaging TLC scanner to determine the percentage of radiolabelled AA converted to 5-HETE in each sample.
(§1) In the following tables, the superscripts indicate the number of experiments and, unless otherwise stated, the dose at which % inhibition is reported is 3 MPK.

[2] = system: 5-LO (LTB4) in dog whole blood; assay: Procedure IV: ex vivo eicosanoid synthesis in dog whole blood after oral dosing, 5-LO; details: Canis lupus familiaris, 5 MPK, read-out: % INHIB/HOURS 5-LO (Proc. IV)
Description: (§2) Ex Vivo eicosanoid synthesis in dog whole blood. Adult beagle or mongrel dogs (10-15 kg) of either sex were fasted overnight prior to the initiation of each experiment. The forelimb was clipped and swabbed with an alcohol prep (70% isopropanol). Blood was drawn by venipuncture into syringes containing lithium heparin (Starstead, Newton N.C.) immediately prior to administration of compound or vehicle and then at various intervals following dosing. The test compound was administered orally as a suspension in 0.5% methocel. At various times after dosing, blood samples were drawn and placed on an electric rocker platform to assure complete and continuous mixing. White blood cell (wbc) counts were performed using a Sysmex hematology analyzer. This was done in an effort to normalize the number of leukocytes to be stimulated with calcium ionophore. A 1.0 mL aliquot of whole blood was challenged with 50 μL of a 2.6×10^-5 M solution of calcium ionophore A23187 (Calbiochem, La Jolla, Calif.) prepared in DMSO and diluted in HBSS. After a 15 minute incubation at 37° C., the reaction was stopped by placing the samples in an ice bath (4° C.) for 5 minutes and then centrifuged at 11,000×g for 5 minutes to separate the plasma fraction from blood cells. The plasma fraction was removed, diluted in an appropriate buffer, and analyzed for the presence of LTB4 and prostaglandin F2a or TxB2 by standard RIA techniques.
as §1

[3] = system: CO (prostaglandin F2a or TxB2) in dog whole blood; assay: Procedure IV: ex vivo eicosanoid synthesis in dog whole blood after oral dosing, CO; details: Canis lupus familiaris, 5 MPK, 2 hours, read-out: % INHIB/HOURS CO (Proc. IV)
Description: as §2, §1

Compound: COc1ccc(-n2nc(CCCOC(=O)N(C)O)c(Cl)c2-c2ccc(Cl)cc2)cc1 [3-D]
- % INHIBITION 5-LO (Procedure II) [1]: 85%
- IC50 [1]: 100 nM
- inhibition at 5 mg/kg ([2]; 2 hours): 1%
- inhibition at 5 mg/kg [3]: 93%

Compound: COc1ccc(-n2nc(CCCOC(=O)N(O)C(C)C)c(Cl)c2-c2ccc(Cl)cc2)cc1 [3-E]
- % INHIBITION 5-LO (Procedure II) [1]: 86%
- IC50 [1]: 70 nM
- inhibition at 5 mg/kg ([2]; 24 hours): 22%
- inhibition at 5 mg/kg [3]: 76%

Compound: COc1ccc(-n2nc(CCCOC(=O)N(C)O)c(Br)c2-c2ccc(Cl)cc2)cc1 [3-F]
- % INHIBITION 5-LO (Procedure II) [1]: 88%
- IC50 [1]: 60 nM
- inhibition at 5 mg/kg ([2]; 2 hours): 8%
- inhibition at 5 mg/kg [3]: 45%
